This passage reports Activity results from ChEMBL document CHEMBL4368862, “Design, synthesis, and anticancer activity evaluation of irreversible allosteric inhibitors of the ubiquitin-conjugating enzyme Ube2g2” (Medchemcomm, 2018).

Calls of active or inactive are those of the source. The calls are words filed in the database; no cut-off is given here.

The target of assay [1] is T1, Ubiquitin-conjugating enzyme E2 G2 (Homo sapiens) (UniProt P60604).
T1 sequence (whole entry): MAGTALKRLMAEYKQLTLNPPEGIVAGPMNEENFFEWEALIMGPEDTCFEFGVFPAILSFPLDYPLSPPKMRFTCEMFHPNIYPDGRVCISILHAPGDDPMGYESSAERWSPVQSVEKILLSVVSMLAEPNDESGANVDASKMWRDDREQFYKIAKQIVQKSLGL
Briefly: Binding affinity to recombinant TEV cleavage site-fused-His6-tagged Ube2g2 (unknown origin) expressed in Escherichia coli Rosetta2 (DE3) assessed as compound-protein complex formation at 5 uL measured after overnight incubation at pH 7.4 by LC/MS analysis.

Assay [2] has as its target T1, Ubiquitin-conjugating enzyme E2 G2 (Homo sapiens). Briefly: Binding affinity to recombinant TEV cleavage site-fused-His6-tagged Ube2g2 (unknown origin) expressed in Escherichia coli Rosetta2 (DE3) assessed as molecular weight of compound-protein conjugate at 5 uL measured after overnight incubation at pH 8.5 by LC/MS analysis (reference value: 18491 Da).
Assay [3] shares this target. The experiment in a line: Binding affinity to recombinant TEV cleavage site-fused-His6-tagged Ube2g2 (unknown origin) expressed in Escherichia coli Rosetta2 (DE3) assessed as modification of Cys48 residue by measuring molecular weight of compound-protein conjugate at 5 uL measured after overnight incubation at pH 8.5 by LC/MS analysis (reference value: 18491 Da).
The target is the same in assay [4]. The experiment in a line: Binding affinity to recombinant TEV cleavage site-fused-His6-tagged Ube2g2 (unknown origin) expressed in Escherichia coli Rosetta2 (DE3) assessed as modification of Cys89 residue by measuring molecular weight of compound-protein conjugate at 5 uL measured after overnight incubation at pH 8.5 by LC/MS analysis (reference value: 18491 Da).

The target is the same in assay [5]. Briefly: Binding affinity to recombinant TEV cleavage site-fused-His6-tagged Ube2g2 (unknown origin) expressed in Escherichia coli Rosetta2 (DE3) assessed as modification of Cys75 residue by measuring molecular weight of compound-protein conjugate at 5 uL measured after overnight incubation at pH 8.5 by LC/MS analysis (reference value: 18491 Da).

Regarding `C=CC(=O)N[C@@H](Cc1ccc(-c2cc(Cl)cc(Cl)c2)cc1)[C@H](O)[C@@H](O)C(=O)OCC`, the outcome in assay [1] was inactive. For the same molecule, the Activity in assay [2] was determined as 18900 Da.

In the case of `C=CC(=O)N[C@H](/C=C/C(=O)OCC)Cc1ccc(-c2cc(Cl)cc(Cl)c2)cc1`, in assay [1], the outcome was inactive. Moreover, the Activity in assay [2] came out at 18900 Da.

As to `C=CC(=O)N[C@@H](/C=C/C(=O)OCC)Cc1ccc(-c2cc(Cl)cc(Cl)c2)cc1`, the outcome in assay [1] was inactive. Moreover, the Activity in assay [2] stood at 18900 Da.

For `CC(C)(C)OC(=O)N[C@H](C=O)Cc1ccc(-c2cc(Cl)cc(Cl)c2)cc1`, the outcome in assay [1] was inactive. The Activity in assay [2] lay within 18900 to 19300 Da.

As to `C=CCC(=O)N[C@@H](/C=C/C(=O)OCC)Cc1ccc(-c2cc(Cl)cc(Cl)c2)cc1`, the outcome in assay [1] and in assay [2] was inactive.

On to `C=CC(=O)N[C@@H](Cc1ccc(-c2cc(Cl)cc(Cl)c2)cc1)[C@H](O)[C@@H](O)C(=O)O`, for which the result in assay [1] and in assay [2] was inactive.

Regarding `C=CC(=O)N[C@H](CO)Cc1ccc(-c2cc(Cl)cc(Cl)c2)cc1`, the Activity in assay [3] amounted to 18800 Da; in assay [4], 19500 Da; in assay [5] it was 19200 Da. In addition, the outcome in assay [1] was inactive.

`C=CC(=O)N[C@H](Cc1ccc(-c2cc(Cl)cc(Cl)c2)cc1)[C@@H](O)[C@H](O)C(=O)OCC`: the outcome in assay [1] was inactive. Besides, in assay [2], the Activity stood at 18900 Da.

For the molecule `C=CCC(=O)N[C@H](/C=C/C(=O)OCC)Cc1ccc(-c2cc(Cl)cc(Cl)c2)cc1`, the outcome in assay [1] and in assay [2] was inactive.

Regarding `C=CC(=O)N[C@@H](/C=C/C(=O)O)Cc1ccc(-c2cc(Cl)cc(Cl)c2)cc1`, in assay [1], the outcome was inactive. In addition, in assay [2], the Activity worked out at 18900 Da.

For `CCOC(=O)/C=C/[C@H](Cc1ccc(-c2cc(Cl)cc(Cl)c2)cc1)NC(=O)OC(C)(C)C`, the result in assay [1] was inactive. Also, in assay [2], the Activity stood at 18900 Da.

Regarding `C=CCC(=O)N[C@H](CO)Cc1ccc(-c2cc(Cl)cc(Cl)c2)cc1`, the outcome in assay [1] and in assay [2] was inactive.

With `C=CCC(=O)N[C@@H](Cc1ccc(-c2cc(Cl)cc(Cl)c2)cc1)[C@H](O)[C@@H](O)C(=O)OCC`, the result in assay [1] and in assay [2] was inactive.

With `C=CCC(=O)N[C@@H](/C=C/C(=O)O)Cc1ccc(-c2cc(Cl)cc(Cl)c2)cc1`, the outcome in assay [1] and in assay [2] was inactive.

As for `C=CCC(=O)N[C@H](Cc1ccc(-c2cc(Cl)cc(Cl)c2)cc1)[C@@H](O)[C@H](O)C(=O)OCC`, the result in assay [1] and in assay [2] was inactive.

Consider `C=CC(=O)N[C@H](Cc1ccc(-c2cc(Cl)cc(Cl)c2)cc1)[C@@H](O)[C@H](O)C(=O)O`, for which the result in assay [1] was inactive. Also, in assay [2], the Activity was in the range of 18900 to 19300 Da.

For the molecule `C=CCC(=O)N[C@@H](Cc1ccc(-c2cc(Cl)cc(Cl)c2)cc1)[C@H](O)[C@@H](O)C(=O)O`, the result in assay [1] and in assay [2] was inactive.

Regarding `C=CCC(=O)N[C@@H](CO)Cc1ccc(-c2cc(Cl)cc(Cl)c2)cc1`, the outcome in assay [1] and in assay [2] was inactive.

Regarding `C=CC(=O)N[C@@H](CO)Cc1ccc(-c2cc(Cl)cc(Cl)c2)cc1`, in assay [1], the outcome was inactive. The Activity in assay [2] is 18800 to 19200 Da.

As for `C=CCC(=O)N[C@H](Cc1ccc(-c2cc(Cl)cc(Cl)c2)cc1)[C@@H](O)[C@H](O)C(=O)O`, the outcome in assay [1] and in assay [2] was inactive.
